Key:
[1] = target: T1, Tau K18 fragment (amino acids 244 to 372 of human Tau441) aggregates (Homo sapiens, UniProt P10636); experiment: Tau K18 disaggregation assay by ThT; format: biochemical; conditions: 2 μM K18 aggregates, 30 minutes at RT, ThT fluorescence
T1 construct: encompassing amino acids 244 to 372 of the longest isoform (2N4R) of human Tau441; host or cells: bacteria

rTg4510 mice [2] = experiment: Histology for misfolded Tau (MC1) in rTg4510 mice; format: in vivo, mouse; conditions: 30 mg/kg bi-daily by gavage for 1 month, frontal cortex (FIG. 2)
Excerpt: (§1) In Vivo Efficacy of the Compounds of the Present Invention In Vivo Study Design for the Testing of Example 12 and Example 45
(§2) Double transgenic rTg4510 mice express the full-length human Tau carrying the P301L mutation (Tau4R0N-P301L) under the control of the tet-inducible CaMKII promoter (Ramsden et al., J. Neurosci., 2005⋅25(46):10637-10647). Single transgenic mice expressing only the tetracycline-controlled transactivator (tTA) were used as genotype controls. The study comprised 4 treatment groups (n=15 female for tTa group and n=11 female mice/group for the treatment) with the following group distribution (see Table 9). […]
(§3) After perfusion, brains were then removed and hemi-sagitally hemisected. […] A systematic random set of sections from seven sagittal levels per animal was used to quantify the Iba1 and CD68 immunoreactivity while 1 section/animal from the medio-lateral level 4 were used to assess Tau misfolding (MC1 monoclonal antibody). […] Sections were imaged using a digital slide scanner (Panoramic 250 Flash, 3D Histech Ltd.) and quantified using the image visualization software Visiopharm.
MC1 staining was analyzed in the frontal cortex in the upper cortical layers. […] This ROI was analyzed in Visiopharm using a predetermined threshold for MC1 staining with a pixel intensity threshold above 30 (8 bits pictures) and excluding all detected objects smaller than 20 μm^2. […]

rTg4510 mice [3] = experiment: Histology for neuroinflammation markers (Iba1, CD68) in rTg4510 mice; format: in vivo, mouse
Excerpt: as §1
as §2, with “9). Compounds or vehicle control were administered once daily or bi-daily by gavage for 1 month starting at the age of 5 months. All mice received 200 ppm doxycycline in chow for 3 weeks plus a loading dose in drinking water for the first two days at 1.5 mg/mL in 4% sucrose.” for “9).”
as §3, with “Visiopharm. […]” for “Visiopharm.”

T1 sequence (P10636 561-689): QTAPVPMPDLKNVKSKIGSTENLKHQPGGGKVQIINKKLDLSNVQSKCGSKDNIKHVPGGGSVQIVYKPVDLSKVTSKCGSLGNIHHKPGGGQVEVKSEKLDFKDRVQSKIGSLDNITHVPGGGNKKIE

Fc1ccc2[nH]c3c(c2c1)CN(c1ccc2nc(N4CCOCC4)oc2c1)CC3 [Example 12]
EC50 [1]: < 10 µM | MC1 positive area (misfolded Tau) (rTg4510 mice [2]): decreased the MC1 positive area | microgliosis measured as Iba1 immunoreactive area (rTg4510 mice [3]; 30 mg/kg bi-daily by gavage for 1 month (FIG. 3A)): decreased microgliosis | activated phagocytic microglial cells positive for CD68 (rTg4510 mice [3]; 30 mg/kg bi-daily by gavage for 1 month (FIG. 3B)): decreased highy activated phagocytic migroglial cells
